# Values quoted from earlier work in patent publication US20080058642A1, “METHOD FOR DETECTING CORONARY ENDOTHELIAL DYSFUNCTION AND EARLY ATHEROSCLEROSIS” (BOARD OF REGENTS OF THE UNIVERSITY OF TEXAS SYSTEM, priority 2006, published 2008).
# Target: T1, ETA-receptor (Homo sapiens, UniProt P25101)
# T1 construct: host or cells: in vivo, heart failure trial
# T1 sequence (P25101 21-427): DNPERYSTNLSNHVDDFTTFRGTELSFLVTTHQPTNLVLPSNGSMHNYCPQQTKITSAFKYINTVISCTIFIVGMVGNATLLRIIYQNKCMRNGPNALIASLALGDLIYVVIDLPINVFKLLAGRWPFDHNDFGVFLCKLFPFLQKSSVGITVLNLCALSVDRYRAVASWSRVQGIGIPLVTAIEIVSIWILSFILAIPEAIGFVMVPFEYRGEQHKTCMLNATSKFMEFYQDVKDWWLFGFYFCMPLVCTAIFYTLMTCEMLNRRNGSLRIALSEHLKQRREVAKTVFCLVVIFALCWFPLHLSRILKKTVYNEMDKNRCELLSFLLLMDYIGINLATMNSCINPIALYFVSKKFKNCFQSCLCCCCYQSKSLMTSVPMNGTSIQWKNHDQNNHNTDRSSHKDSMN
# Conditions: recent randomized trial; cited from earlier work
smiles,measurement,value
COc1cc(OC)nc(O[C@H](C(=O)O)C(OC)(c2ccccc2)c2ccccc2)n1 [Darusentan™],benefit in heart failure,no benefit
